Data as given in US12528767B2, “HDAC6 inhibitors and uses thereof” (Eikonizo Therapeutics, Inc., priority 2019, dated 2026).

How the values were obtained:
[1] = system: tubulin acetylation (acTubK40) in undifferentiated SH-SY5Y cells; experiment: Tubulin acetylation in cells (Western immunoblot); type: cell-based; details: Homo sapiens, 4 hours, acetylTubulin/Tubulin ratio
Protocol: (§1) Compound EC50 Determination for Tubulin- and Histone H3 Acetylation in Cells
(§2) Estimation of the EC50 for exemplary compounds to alter target protein acetylation in undifferentiated SH-SY5Y cells was performed using standard Western immunoblotting methods. […] SH-SY5Y cells were grown to 90% confluency on sterile cell growth plates. 10 mM compound stocks prepared in DMSO and two-fold serial dilutions were prepared from the stock and applied to cells to achieve a 12-point concentration range in cell media from an upper limit of 10 μM to a lower limit of DMSO [zero compound].
(§3) Cells were incubated under normal growth conditions (37° C., 5% CO2) in the presence of compound for 4 hours, then media was aspirated and cells were rinsed two times with 1×DPBS with calcium and magnesium warmed to 37° C. Cells were frozen directly on the plates on a bed of dry ice for 5 min, then stored at −80° C. until protein extraction.
(§4) Protein extraction was performed in RIPA buffer (50 mM Tris-HCL pH 8.0, 150 mM NaCl, 0.5% sodium deoxycholate, 0.1% sodium dodecyl sulfate, 1% NP-40) supplemented with Pierce protease inhibitor mini tables (Thermofisher cat #A32953) exactly as described by the manufacturer. After thawing the plate on a bed of wet ice for 10 minutes, lysis buffer was added to each well (e.g. 100 μL per well of a 24-well plate) and cells scraped from the bottom of each well. Lysates were then sonicated over ice (40% power, 30 pulses of 1 second on, 2 seconds off), centrifuged at 16,000 g for 10 min at 4° C., and the clarified supernatant saved. Protein concentration was determined by BCA assay and at least 3 μg prepared per lane by combining lysate supernatant aliquot with 1/3 total volume of 3× gel loading buffer containing DTT (NEB Cat. #B7703S), heating for 5 minutes at 95° C., briefly centrifuging and then loading on an SDS-PAGE gel.
(§5) Proteins were resolved on a 4-20% Tris-Glycine gel and transferred to PVDF membrane using an iBlot2 dry transfer system. The membrane was then blocked for at least 30 minutes at room temperature in TBST containing 5% milk or 5% bovine serum albumin, then incubated overnight at 4° C. with a single primary antibody from the following table:
(§6) Following primary antibody incubation, membranes were washed, incubated in secondary antibody, washed and incubated in ECL prime western blotting detection reagent (Amersham #RPN223) with membrane exposure and ECL signal capture in a LI-COR Odyssey Imaging system. […] Subsequent densitometry of immunoreactive bands was performed using the ImageStudio software and Microsoft Excel resulting in the following ratios: acetylTubulin/Tubulin and acetyl histone H3K9/histone H3. Raw ratios were uploaded to GraphPad Prism v7.0 with EC50 values modeled using the variable slope equation for log-transformed data [log(agonist) vs response in Prism].

[2] = system: histone H3 acetylation (acH3K9) in undifferentiated SH-SY5Y cells; experiment: Histone H3 acetylation in cells (Western immunoblot); type: cell-based; details: Homo sapiens, 4 hours, acetyl histone H3K9/histone H3 ratio
Protocol: as §1, §2, §3, §4, §5, §6

Full length Human HDAC2 = Full length Human HDAC2 (Homo sapiens, UniProt Q92769)
Sequence of Full length Human HDAC2 (Q92769 whole entry): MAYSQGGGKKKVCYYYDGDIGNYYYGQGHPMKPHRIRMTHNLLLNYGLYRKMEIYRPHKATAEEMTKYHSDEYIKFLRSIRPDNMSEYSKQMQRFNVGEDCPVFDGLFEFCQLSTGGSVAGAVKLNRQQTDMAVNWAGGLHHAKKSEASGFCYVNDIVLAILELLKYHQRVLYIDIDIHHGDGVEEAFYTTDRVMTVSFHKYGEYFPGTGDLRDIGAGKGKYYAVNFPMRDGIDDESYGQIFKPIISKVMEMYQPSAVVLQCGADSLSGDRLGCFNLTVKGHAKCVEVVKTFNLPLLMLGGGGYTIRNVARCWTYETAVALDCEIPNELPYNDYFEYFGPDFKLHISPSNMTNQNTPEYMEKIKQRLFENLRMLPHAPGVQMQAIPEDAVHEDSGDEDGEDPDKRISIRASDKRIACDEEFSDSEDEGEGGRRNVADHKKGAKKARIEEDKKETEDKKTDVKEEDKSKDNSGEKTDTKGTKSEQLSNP

[3] = target: Full length Human HDAC3 co-expressed with Human NCOR2 (Homo sapiens, UniProt O15379)
Sequence of Full length Human HDAC3 co-expressed with Human NCOR2 (O15379 whole entry, the tested form may be a part): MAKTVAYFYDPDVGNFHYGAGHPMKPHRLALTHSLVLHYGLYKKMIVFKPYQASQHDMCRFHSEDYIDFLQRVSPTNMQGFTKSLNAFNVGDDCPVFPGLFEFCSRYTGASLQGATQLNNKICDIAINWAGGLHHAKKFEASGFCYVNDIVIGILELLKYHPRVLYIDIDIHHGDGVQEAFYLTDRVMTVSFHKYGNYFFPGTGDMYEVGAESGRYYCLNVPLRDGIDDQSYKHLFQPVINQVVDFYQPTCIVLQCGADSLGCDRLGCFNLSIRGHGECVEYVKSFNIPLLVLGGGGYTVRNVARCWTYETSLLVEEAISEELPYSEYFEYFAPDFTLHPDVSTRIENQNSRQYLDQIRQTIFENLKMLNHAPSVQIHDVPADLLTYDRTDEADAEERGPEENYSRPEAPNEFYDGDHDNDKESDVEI
Sequence of Full length Human HDAC3 co-expressed with Human NCOR2 (Q9Y618 395-489 partner limits assumed): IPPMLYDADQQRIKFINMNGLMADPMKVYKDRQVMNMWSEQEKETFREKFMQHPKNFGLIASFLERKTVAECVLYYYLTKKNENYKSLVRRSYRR

[4] = target: Human HDAC4 aa 101-1084(end) (Homo sapiens, UniProt P56524)
Sequence of Human HDAC4 aa 101-1084(end) (P56524 101-1084): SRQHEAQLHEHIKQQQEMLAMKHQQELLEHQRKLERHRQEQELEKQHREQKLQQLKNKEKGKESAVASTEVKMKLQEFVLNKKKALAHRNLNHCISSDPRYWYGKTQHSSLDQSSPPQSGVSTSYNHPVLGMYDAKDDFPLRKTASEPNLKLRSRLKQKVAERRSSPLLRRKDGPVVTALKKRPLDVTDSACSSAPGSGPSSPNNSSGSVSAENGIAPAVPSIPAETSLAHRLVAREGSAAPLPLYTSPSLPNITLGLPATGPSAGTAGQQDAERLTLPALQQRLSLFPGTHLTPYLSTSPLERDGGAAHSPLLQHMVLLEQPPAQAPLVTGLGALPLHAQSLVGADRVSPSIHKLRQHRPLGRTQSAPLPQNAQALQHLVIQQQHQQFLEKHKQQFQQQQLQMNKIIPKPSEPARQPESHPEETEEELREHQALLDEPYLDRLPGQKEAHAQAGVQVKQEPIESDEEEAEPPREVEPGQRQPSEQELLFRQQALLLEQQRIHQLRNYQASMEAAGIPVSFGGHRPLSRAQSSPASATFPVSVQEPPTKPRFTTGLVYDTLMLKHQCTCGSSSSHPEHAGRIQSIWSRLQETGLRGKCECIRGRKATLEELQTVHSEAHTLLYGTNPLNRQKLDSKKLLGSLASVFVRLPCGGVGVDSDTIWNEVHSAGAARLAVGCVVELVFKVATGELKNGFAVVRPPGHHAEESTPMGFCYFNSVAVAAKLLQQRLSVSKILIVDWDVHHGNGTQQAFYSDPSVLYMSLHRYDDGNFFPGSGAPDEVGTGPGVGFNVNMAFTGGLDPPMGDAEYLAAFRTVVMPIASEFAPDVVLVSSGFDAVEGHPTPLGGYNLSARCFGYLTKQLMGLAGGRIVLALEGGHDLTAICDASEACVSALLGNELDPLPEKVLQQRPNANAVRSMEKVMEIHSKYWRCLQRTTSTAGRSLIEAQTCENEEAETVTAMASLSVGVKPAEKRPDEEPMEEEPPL

Full length Human HDAC5 = Full length Human HDAC5 (Homo sapiens, UniProt Q9UQL6)
Sequence of Full length Human HDAC5 (Q9UQL6 whole entry): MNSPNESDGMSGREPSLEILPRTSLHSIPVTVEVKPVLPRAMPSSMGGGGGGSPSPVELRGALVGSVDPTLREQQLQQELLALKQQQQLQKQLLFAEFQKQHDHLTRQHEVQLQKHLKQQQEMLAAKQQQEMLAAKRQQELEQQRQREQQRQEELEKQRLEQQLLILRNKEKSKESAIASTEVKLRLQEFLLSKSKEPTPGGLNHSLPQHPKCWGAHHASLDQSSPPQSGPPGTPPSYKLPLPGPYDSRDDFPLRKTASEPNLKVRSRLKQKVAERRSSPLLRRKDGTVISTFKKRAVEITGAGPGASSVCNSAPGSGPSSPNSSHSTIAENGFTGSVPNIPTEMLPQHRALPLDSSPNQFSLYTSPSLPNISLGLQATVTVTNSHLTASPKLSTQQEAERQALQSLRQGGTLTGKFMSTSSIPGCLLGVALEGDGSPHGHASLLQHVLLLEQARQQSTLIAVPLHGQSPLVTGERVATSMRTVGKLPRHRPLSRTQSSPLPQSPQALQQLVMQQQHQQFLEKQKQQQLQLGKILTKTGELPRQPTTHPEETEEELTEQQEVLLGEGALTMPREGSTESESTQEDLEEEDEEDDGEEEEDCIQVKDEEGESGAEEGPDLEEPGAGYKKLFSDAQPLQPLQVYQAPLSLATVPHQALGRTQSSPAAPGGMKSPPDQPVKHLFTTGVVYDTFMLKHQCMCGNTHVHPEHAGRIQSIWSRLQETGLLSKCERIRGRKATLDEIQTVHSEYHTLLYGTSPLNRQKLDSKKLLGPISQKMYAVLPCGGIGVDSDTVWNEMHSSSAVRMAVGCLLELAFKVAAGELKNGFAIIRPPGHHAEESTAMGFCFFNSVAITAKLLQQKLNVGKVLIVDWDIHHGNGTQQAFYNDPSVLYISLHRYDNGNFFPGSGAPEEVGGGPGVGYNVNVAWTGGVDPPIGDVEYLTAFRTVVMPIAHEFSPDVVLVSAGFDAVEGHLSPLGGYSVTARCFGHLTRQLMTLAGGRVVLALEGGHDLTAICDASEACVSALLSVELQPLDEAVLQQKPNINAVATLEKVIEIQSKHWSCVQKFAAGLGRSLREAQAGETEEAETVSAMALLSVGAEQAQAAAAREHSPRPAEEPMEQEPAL

Full length Human HDAC11 = target: T1, Full length Human HDAC11 (Homo sapiens, UniProt Q96DB2)
T1 sequence (Q96DB2 1-347): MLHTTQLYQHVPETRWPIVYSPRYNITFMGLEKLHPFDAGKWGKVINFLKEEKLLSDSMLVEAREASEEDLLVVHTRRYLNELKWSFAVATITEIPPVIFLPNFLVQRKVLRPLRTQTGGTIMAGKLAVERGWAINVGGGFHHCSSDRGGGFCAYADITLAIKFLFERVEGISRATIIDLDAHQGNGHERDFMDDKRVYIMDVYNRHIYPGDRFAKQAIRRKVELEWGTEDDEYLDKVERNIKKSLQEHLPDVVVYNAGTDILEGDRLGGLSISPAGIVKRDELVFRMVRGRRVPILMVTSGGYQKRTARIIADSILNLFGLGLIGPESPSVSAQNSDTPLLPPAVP

Row | EC50 [1] [µM] | EC50 [2] [µM] | IC50 (Full length Human HDAC2) [µM] | IC50 [3] [µM] | IC50 [4] [µM] | IC50 (Full length Human HDAC5) [µM] | IC50 (Full length Human HDAC11) [µM] | Structure (SMILES)
1 |  |  | 10 to 100 | 1 to 10 | 1 to 10 | 1 to 10 | 1 to 10 | O=C(NO)c1cc(F)c2c(c1)C[C@@H]1CCCCN1C2 (single isomer, unassigned) [compound 93]
2 |  |  | > 100 | 10 to 100 | 10 to 100 | 10 to 100 | > 100 | O=C(NO)c1cc(F)c2c(c1)C[C@H]1CCCCN1C2 (single isomer, unassigned) [compound 94]
3 |  |  | > 100 | 10 to 100 | 10 to 100 | 10 to 100 | 0.001 to 0.1 | O=C(NO)c1ccc(CN2C[C@@H]3CC[C@H]2CO3)c(F)c1 (single isomer, unassigned) [compound 172]
4 |  |  | 10 to 100 | 1 to 10 | 1 to 10 | 10 to 100 | 10 to 100 | O=C(NO)c1ccc(CN2C[C@H]3CC[C@@H]2CO3)c(F)c1 (single isomer, unassigned) [compound 173]
5 | 2.9 | > 10 | 10 to 100 | 10 to 100 | 10 to 100 | > 100 | 1 to 10 | O=C(NO)c1cc(F)c2c(c1)CCN(C1CC3(CCCCC3)C1)C2 [compound 16]
6 | 0.3 | > 10 |  |  |  |  |  | O=C(NO)c1cc(F)c2c(c1)CCN(Cc1ccccc1)C2 [compound 32]
7 | 2.1 | > 10 | 10 to 100 | 1 to 10 | 10 to 100 | 10 to 100 | 1 to 10 | O=C(NO)c1cc(F)c2c(c1)CCN(CC13CC4CC(CC(C4)C1)C3)C2 [compound 34]
8 | 0.2 | > 10 | 10 to 100 | 1 to 10 | 1 to 10 | 1 to 10 | 10 to 100 | O=C(NO)c1ccc(CN2CC3CCC(C2)O3)c(F)c1 [compound 53]
9 | 2.6 | 2.5 | 10 to 100 | 1 to 10 | 1 to 10 | 1 to 10 | > 100 | O=C(NO)c1ccc(CN2CC3CCC2CO3)c(F)c1 (stereo not shown) [compound 58]
10 | 1.4 | > 10 |  |  |  |  |  | O=C(NO)c1ccc(CN2CCC3(CCCCC3)C2)c(F)c1 [compound 75, 4-((2-Azaspiro[4.5]decan-2-yl)methyl)-3-fluoro-N-hydroxybenzamide]
11 |  |  | 10 to 100 | 1 to 10 | 10 to 100 | > 100 | 10 to 100 | O=C(NO)c1ccc2c(c1)CN1CCCCN1C2 [compound 106, N-hydroxy-1,2,3,4,6,11-hexahydropyridazino[1,2-b]phthalazine-8-carboxamide]

Row | Structure (SMILES) | EC50 [1] [µM] | EC50 [2] [µM] | IC50 (Full length Human HDAC2) [µM] | IC50 [3] [µM] | IC50 [4] [µM] | IC50 (Full length Human HDAC5) [µM] | IC50 (Full length Human HDAC11) [µM]
12 | O=C(NO)c1cc(F)c2c(c1)CCN1CCC[C@@H]21 (single isomer, unassigned) [compound 79] | 0.44 | > 10 | 10 to 100 | 1 to 10 | 1 to 10 | 1 to 10 | > 100
